Species on record: Rattus norvegicus
Experiment: DrugMatrix - Regimen: Daily Repeat
Type: toxicity, organism-based, Sprague-Dawley
Design: regimen Daily Repeat, gender Male, age 6-8 weeks
Conditions: in vivo, po, route oral GAVAGE, vehicle 100 % WATER; for ABSOLUTE BASOPHIL / ABSOLUTE EOSINOPHIL / ABSOLUTE LYMPHOCYTE / ABSOLUTE MONOCYTE / ABSOLUTE SEGMENTED NEUTROPHIL / BASOPHIL / EOSINOPHIL / ERYTHROCYTE COUNT / HEMATOCRIT / HEMOGLOBIN / LEUKOCYTE COUNT / LYMPHOCYTE / MEAN CORPUSCULAR HEMOGLOBIN / MEAN CORPUSCULAR HEMOGLOBIN CONCENTRATION / MEAN CORPUSCULAR VOLUME / MONOCYTE / NEUTROPHIL / NUCLEATED RED BLOOD CELLS / PLATELET COUNT: tissue Blood; for ALANINE AMINOTRANSFERASE / ALBUMIN / ALKALINE PHOSPHATASE / ASPARTATE AMINOTRANSFERASE / BLOOD UREA NITROGEN / CARBON DIOXIDE / CHLORIDE / CHOLESTEROL / CREATINE PHOSPHOKINASE / CREATININE / GLUCOSE / LACTATE DEHYDROGENASE / LIPASE / PHOSPHORUS / POTASSIUM / SODIUM / TOTAL BILIRUBIN / TOTAL PROTEIN / URIC ACID: tissue Plasma
[1] = 30 mg/kg, 120 h, dose level Low, time 5 day
[2] = 2000 mg/kg, 72 h, dose level High, time 3 day
[3] = 2000 mg/kg, 120 h, dose level High, time 5 day

CC(C)NCC(O)c1ccc(NS(C)(=O)=O)cc1 (centres undefined) [SOTALOL]
ABSOLUTE BASOPHIL [1]: 0 CELLS/uL | ABSOLUTE EOSINOPHIL [1]: 80.67 CELLS/uL | ABSOLUTE LYMPHOCYTE [1]: 11724 CELLS/uL | ABSOLUTE MONOCYTE [1]: 98 CELLS/uL | ABSOLUTE SEGMENTED NEUTROPHIL [1]: 997.33 CELLS/uL | BASOPHIL [1]: 0% | EOSINOPHIL [1]: 0.67% | ERYTHROCYTE COUNT [1]: 5.34 x10E6/uL | HEMATOCRIT [1]: 34.2% | HEMOGLOBIN [1]: 13.43 G/DL | LEUKOCYTE COUNT [1]: 12.9 x10E3/uL | LYMPHOCYTE [1]: 90.67% | MEAN CORPUSCULAR HEMOGLOBIN [1]: 25.17 pg | MEAN CORPUSCULAR HEMOGLOBIN CONCENTRATION [1]: 39.27 G/DL | MEAN CORPUSCULAR VOLUME [1]: 64 fL | MONOCYTE [1]: 0.67% | NEUTROPHIL [1]: 8% | NUCLEATED RED BLOOD CELLS [1]: 0 /100WBC | PLATELET COUNT [1]: 1232.33 x10E3/uL | ALANINE AMINOTRANSFERASE [1]: 48 u/L | ALBUMIN [1]: 4.27 G/DL | ALKALINE PHOSPHATASE [1]: 355 u/L | ASPARTATE AMINOTRANSFERASE [1]: 104.33 u/L | BLOOD UREA NITROGEN [1]: 17 mg/dL | CARBON DIOXIDE [1]: 28.33 mmol/L | CHLORIDE [1]: 105 MEQ/L | CHOLESTEROL [1]: 70.67 mg/dL | CREATINE PHOSPHOKINASE [1]: 193.67 u/L | CREATININE [1]: 0.2 mg/dL | GLUCOSE [1]: 131.67 mg/dL | LACTATE DEHYDROGENASE [1]: 156 u/L | LIPASE [1]: 9.33 u/L | PHOSPHORUS [1]: 11.6 mg/dL | POTASSIUM [1]: 6.59 MEQ/L | SODIUM [1]: 150.53 MEQ/L | TOTAL BILIRUBIN [1]: 0.2 mg/dL | TOTAL PROTEIN [1]: 6.13 G/DL | URIC ACID [1]: 1.17 mg/dL | ABSOLUTE BASOPHIL [2]: 0 CELLS/uL | ABSOLUTE EOSINOPHIL [2]: 0 CELLS/uL | ABSOLUTE LYMPHOCYTE [2]: 13259 CELLS/uL | ABSOLUTE MONOCYTE [2]: 47.67 CELLS/uL | ABSOLUTE SEGMENTED NEUTROPHIL [2]: 926.67 CELLS/uL | BASOPHIL [2]: 0% | EOSINOPHIL [2]: 0% | ERYTHROCYTE COUNT [2]: 5.36 x10E6/uL | HEMATOCRIT [2]: 33.57% | HEMOGLOBIN [2]: 13.17 G/DL | LEUKOCYTE COUNT [2]: 14.23 x10E3/uL | LYMPHOCYTE [2]: 93% | MEAN CORPUSCULAR HEMOGLOBIN [2]: 24.57 pg | MEAN CORPUSCULAR HEMOGLOBIN CONCENTRATION [2]: 39.23 G/DL | MEAN CORPUSCULAR VOLUME [2]: 62.73 fL | MONOCYTE [2]: 0.33% | NEUTROPHIL [2]: 6.67% | NUCLEATED RED BLOOD CELLS [2]: 0 /100WBC | PLATELET COUNT [2]: 1424.33 x10E3/uL | ALANINE AMINOTRANSFERASE [2]: 61 u/L | ALBUMIN [2]: 3.9 G/DL | ALKALINE PHOSPHATASE [2]: 388.67 u/L | ASPARTATE AMINOTRANSFERASE [2]: 106.33 u/L | BLOOD UREA NITROGEN [2]: 14 mg/dL | CARBON DIOXIDE [2]: 21.33 mmol/L | CHLORIDE [2]: 104 MEQ/L | CHOLESTEROL [2]: 57.67 mg/dL | CREATINE PHOSPHOKINASE [2]: 412.33 u/L | CREATININE [2]: 0.15 mg/dL | GLUCOSE [2]: 148 mg/dL | LACTATE DEHYDROGENASE [2]: 629 u/L | LIPASE [2]: 10 u/L | PHOSPHORUS [2]: 11.93 mg/dL | POTASSIUM [2]: 7.54 MEQ/L | SODIUM [2]: 142.93 MEQ/L | TOTAL BILIRUBIN [2]: 0.2 mg/dL | TOTAL PROTEIN [2]: 5.5 G/DL | URIC ACID [2]: 1.8 mg/dL | ABSOLUTE BASOPHIL [3]: 0 CELLS/uL | ABSOLUTE EOSINOPHIL [3]: 0 CELLS/uL | ABSOLUTE LYMPHOCYTE [3]: 13770.67 CELLS/uL | ABSOLUTE MONOCYTE [3]: 100.67 CELLS/uL | ABSOLUTE SEGMENTED NEUTROPHIL [3]: 1095.33 CELLS/uL | BASOPHIL [3]: 0% | EOSINOPHIL [3]: 0% | ERYTHROCYTE COUNT [3]: 5.87 x10E6/uL | HEMATOCRIT [3]: 36.53% | HEMOGLOBIN [3]: 14.37 G/DL | LEUKOCYTE COUNT [3]: 14.97 x10E3/uL | LYMPHOCYTE [3]: 92% | MEAN CORPUSCULAR HEMOGLOBIN [3]: 24.47 pg | MEAN CORPUSCULAR HEMOGLOBIN CONCENTRATION [3]: 39.33 G/DL | MEAN CORPUSCULAR VOLUME [3]: 62.27 fL | MONOCYTE [3]: 0.67% | NEUTROPHIL [3]: 7.33% | NUCLEATED RED BLOOD CELLS [3]: 0.33 /100WBC | PLATELET COUNT [3]: 1192.33 x10E3/uL | ALANINE AMINOTRANSFERASE [3]: 54.33 u/L | ALBUMIN [3]: 4.33 G/DL | ALKALINE PHOSPHATASE [3]: 480.33 u/L | ASPARTATE AMINOTRANSFERASE [3]: 83 u/L | BLOOD UREA NITROGEN [3]: 16.33 mg/dL | CARBON DIOXIDE [3]: 24.33 mmol/L | CHLORIDE [3]: 106 MEQ/L | CHOLESTEROL [3]: 77 mg/dL | CREATINE PHOSPHOKINASE [3]: 259.33 u/L | CREATININE [3]: 0.22 mg/dL | GLUCOSE [3]: 159.33 mg/dL | LACTATE DEHYDROGENASE [3]: 78.67 u/L | LIPASE [3]: 10.33 u/L | PHOSPHORUS [3]: 13.13 mg/dL | POTASSIUM [3]: 6.86 MEQ/L | SODIUM [3]: 148.2 MEQ/L | TOTAL BILIRUBIN [3]: 0.2 mg/dL | TOTAL PROTEIN [3]: 6.13 G/DL | URIC ACID [3]: 1.73 mg/dL

— ChEMBL document CHEMBL3885881, “DrugMatrix”
